Assay results published in patent US4885361A, “Sulfated oligosaccharides” (Hoffmann-La Roche Inc., priority 1987, dated 1989).

Legend:
[1] = tested on: citrated human plasma (aPTT, coagulation); assay: aPTT (activated partial thromboplastin time) Test; format: biochemical; settings: concentration which leads to a coagulation time double the control value, 37° C.
Experimental: aPTT (activated partial thromboplastin time) Test (see Walenga et al., CRC Critical Reviews in Laboratory Sciences 22 (4) 361-389 (1986)): 100 μl of citrated human plasma, which contains various concentrations of test compound, is mixed at 37° C. for 8 minutes with 100μ of Activated Thrombofax (ellagic acid as contact activator and bovine cephalin as platelet lipid substitute). 100 μl of pre-warmed 25 mM calcium chloride solution are then added and the coagultion time is measured in a Fibrometer Coagulation Timer.
(§1) The activity of the test compound is given as the IC50 which is the concentration [μg/ml] which leads to a coagulation time which is double the control value.

Factor Xa [2] = assay: anti-Xa Clotting Assay; format: biochemical; settings: concentration which leads to a coagulation time double the control value; citrated plasma, 37° C.
Experimental: anti-Xa Clotting Assay: 25 μl of citrated plasma having various concentrations of test compound are mixed with 75 μl of Factor Xa (the activated blood coagulation factor X) diluted 1:100 with 0.63% citrated buffer (pH 7.3) which contains 41 mM imidazole, 82 mM NaCl and 0.1% albumin. After warming to 37° C. for 2 minutes 200 μl of a 1:1 mixture of Factor X Deficient Plasma and Platelet Substitute are added and the mixture is incubated at 37° C. for 20 seconds. After the addition of 100 μl of prewarmed 50 mM calcium chloride solution the coagulation time is measured in a Fibrometer.
as §1

thrombin (IIa) = assay: Inhibition of Thrombin in the Chromogenic Substrate Assay; format: biochemical; settings: amidolytic activity of thrombin reduced by 50% vs plasma control; anti-thrombin III, pH 8.4
Experimental: Inhibition of Thrombin or Factor Xa in the Chromogenic Substrate Assay (Teien et al., Thrombosis Research 10, 399-410 (1977)): The determination was effected in a Cobas-Bio centrifugal automatic spectrophotometer. The buffer solution used consisted of 50 mM Tris buffer, 180 mM NaCl, 7.5 mM EDTA Na2, 1% PEG 6000 (a polyethylene glycol of mol. weight 6000) and 0.02% Tween 80 (a polyoxyethylene sorbitanmonooleate), pH 8.4. The test solution consisted of 50 μl of buffer, 30 μl of anti-thrombin III (1 U/ml), and 20 μl of plasma which contained various concentrations of test compounds. 30 μl of sample solution and 20 μl of water with 180 μl of thrombin were added to the test cuvette in the automatic analyzer. After incubation at 37° C. for 240 seconds 60 μl of the p-nitranilide, H-D-Phe-Pip-Arg-NH.pNA, (0.75 mM in water) and 20 μl of water were added. The liberation of pNA (p-nitroaniline) was followed during 60 seconds at 405 nm in 10 second intervals in comparison to water as the blank. The inhibitory activity is given as the IC50 which is the concentration [μg/ml] at which the amidolytic activity of thrombin is reduced by 50% in comparison to the plasma control value.

Factor Xa [3] = assay: Inhibition of Factor Xa in the Chromogenic Substrate Assay; format: biochemical; settings: Factor Xa 2.8 nkat/ml, Bz-CO-Ile-Glu-Arg-NH.pNA
[4] = tested on: Swiss 3T3 mouse fibroblastoid cells; assay: anti-proliferative activity, Swiss 3T3 cells; format: cell-based; settings: net proliferation, cells collected on the 4th day, 10% calf serum
Experimental: (§2) Cells of different origin (Swiss 3T3 mouse fibroblastoid cells, HSMC: human smooth muscle cells and endothelial cells, both isolated from human umbilical cord veins) in RPMI 1640 medium containing 10% calf serum (Swiss 3T3 cells), 15% fetal calf serum (HSMC) or 15% fetal calf serum plus 300 μg/ml of endothelial cell growth supplement (endothelial cells) were cultivated at 37° C. in water-saturated air/5% Co2. Confluent cultures were then washed once with HBSS, removed with 0.05% trypsin/0.02%EDTA and collected by centrifugation. The cells were applied to cell culture plates with a density of 5000 cells/culture and the test compound was added one hour later. The cells were then incubated at 37° C. in air/5% CO2 and collected on the 4th day (Swiss 3T3) and on the 7th day (HSMC and endothelial cells). In order to determine th number of cells, these were washed once with HBSS and adhering cells were incubated for 10 minutes at 37° C. with 0.5 ml of trypsin/EDTA solution for separation. 0.5 ml of formol solution (0.5% paraformaldehyde, 0.145M NaCl, 1.3 mM EDTA) was added to each culture in order to fix the cells. […] The number of cells was determined with a Coulter counter. The inhibitory action by the test compounds was determined as follows: [formula] with the net proliferation being the number of cells at the end of the test minus the number of cells on day 1 (=24 hour after inoculation). […]

[5] = tested on: HSMC: human smooth muscle cells; assay: anti-proliferative activity, human smooth muscle cells; format: cell-based; settings: net proliferation, cells collected on the 7th day, 15% fetal calf serum
Experimental: as §2

[6] = tested on: bloody lesions of the mucous membrane of the stomach; assay: mucosa-protective properties (ethanol-induced stomach lesions); format: in vivo; settings: 30 mg/kg oral, 30 minutes prior to ethanol, rat, vs control group
Experimental: The test procedure described hereinafter can be used to determine the mucosa-protective properties:
Oral administration of absolute ethanol to male rats in a dosage of 1 ml per rat leads within 1 hour to bloody lesions of the mucous membrane of the stomach. Various dosages of the substances to be tested (suspended in 0.125% carboxymethylcellulose) or the vehicle alone (control) are administered orally to the rats (1 ml per rat) 30 minutes prior to the treatment with ethanol. One hour after the administration of the ethanol the animals are killed, their stomachs are investigated for the presence of lesions and the number and the total extent of such lesions are determined.

mouse = assay: acute toxicity determination in the mouse; format: in vivo
Experimental: In an acute toxicity determination in the mouse the compound of Example 1 was still not lethal after the intravenous application of 500 mg/kg or after the subcutaneous application of 4000 mg/kg.

Substance	Coagulation inhibition IC50, aPTT [1] [µg/mL]	Coagulation inhibition IC50, Xa (Factor Xa [2]) [µg/mL]	Chromogenic Substrate (amidolytic activity) IC50, IIa (thrombin (IIa)) [µg/mL]	Chromogenic Substrate (amidolytic activity) IC50, Xa (Factor Xa [3]) [µg/mL]	IC50 Swiss 3T3 [4] [µg/mL]	IC50 HSCM [5] [µg/mL]	reduction of the number of lesions [6] [%]	lethal dose (not lethal after), intravenous (mouse; intravenous) [mg/kg]	lethal dose (not lethal after), subcutaneous (mouse; subcutaneous) [mg/kg]
Heparin [reference compound]	1.2	0.6	1.9	2.7	35	45			
trestatin A sulfate sodium salt [Example 1]	7	> 30	> 1000	550	30	20	28	> 500	> 4000
